Data as given in ChEMBL document CHEMBL3132806, “Dual mode of action of phenyl-pyrazole-phenyl (6-5-6 system)-based PPI inhibitors: alpha-helix backbone versus alpha-helix binding epitope” (Medchemcomm, 2013).

What was measured:
[1] = Kinetic solubility of the compound in PBS buffer; type: physicochemical
[2] = molecular target: Tumour suppressor p53/oncoprotein Mdm2 (Homo sapiens, UniProt Q00987); assay: Inhibition of 6His-tagged MDM2 (1 to 118) interaction to FITC-tagged p53 (17 to 26) (unknown origin) after 30 mins by fluorescence polarization assay; type: protein assay
Sequence of Tumour suppressor p53/oncoprotein Mdm2 (P04637 whole entry): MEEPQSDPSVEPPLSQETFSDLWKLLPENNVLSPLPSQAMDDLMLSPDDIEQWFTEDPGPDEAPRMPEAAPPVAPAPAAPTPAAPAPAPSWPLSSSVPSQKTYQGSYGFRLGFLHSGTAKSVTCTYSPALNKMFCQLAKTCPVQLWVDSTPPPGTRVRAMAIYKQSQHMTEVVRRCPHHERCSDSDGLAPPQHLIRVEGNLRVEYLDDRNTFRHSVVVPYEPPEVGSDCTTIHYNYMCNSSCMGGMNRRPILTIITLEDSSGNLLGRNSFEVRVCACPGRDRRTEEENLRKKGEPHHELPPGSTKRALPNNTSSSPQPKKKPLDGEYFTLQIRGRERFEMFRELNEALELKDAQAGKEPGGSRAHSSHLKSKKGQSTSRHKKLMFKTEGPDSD
Sequence of Tumour suppressor p53/oncoprotein Mdm2 (Q00987 whole entry): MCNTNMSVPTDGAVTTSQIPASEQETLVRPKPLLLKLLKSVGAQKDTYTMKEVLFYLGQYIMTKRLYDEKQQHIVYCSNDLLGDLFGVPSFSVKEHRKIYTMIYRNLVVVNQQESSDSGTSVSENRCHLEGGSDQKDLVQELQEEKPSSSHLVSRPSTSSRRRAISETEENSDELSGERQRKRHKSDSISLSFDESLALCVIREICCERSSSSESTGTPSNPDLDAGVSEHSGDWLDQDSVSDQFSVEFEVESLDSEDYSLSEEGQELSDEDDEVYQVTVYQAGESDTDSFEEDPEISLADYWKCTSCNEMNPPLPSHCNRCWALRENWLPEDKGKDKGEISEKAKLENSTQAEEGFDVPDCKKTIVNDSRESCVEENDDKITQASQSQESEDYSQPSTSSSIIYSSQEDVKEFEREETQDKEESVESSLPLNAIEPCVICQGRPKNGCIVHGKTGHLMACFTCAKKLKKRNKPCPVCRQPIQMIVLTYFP

| Kinetic_solubility [1] [Ug/ml] | IC50 [2] [µM] | Structure (SMILES) |
| --- | --- | --- |
| > 0.2 | 595 | COc1ccc(CC(=O)O)cc1-c1cc(-c2ccc(F)cc2)n(Cc2ccccc2)n1 |
| 0.066 | 14.2 | CCCCOc1ccc(C(=O)O)cc1-c1cc(-c2cccc(OC)c2OC)n(CCc2ccccc2)n1 |
| > 0.2 | 35.8 | CCOc1ccc(CCC(=O)O)cc1-c1cc(-c2ccc(F)cc2)n(CCc2ccccc2)n1 |
| > 0.2 | 258 | CCOc1ccccc1-c1cc(-c2cc(CCC(=O)O)ccc2OC)nn1CCc1ccccc1 |
| 0.117 | 6.56 | CCCOc1ccc(C(=O)O)cc1-c1cc(-c2cccc(OC)c2OC)n(CCc2ccccc2)n1 |
| > 0.2 | 1020 | COc1ccc(C(=O)O)cc1-c1cc(-c2cccc(OC)c2OC)n(Cc2ccccc2)n1 |
| < 0.015 | 130 | O=C(O)Cc1ccc(OCc2ccccc2Cl)c(-c2cc(-c3ccc(F)cc3)n(Cc3ccccc3)n2)c1 |
| < 0.015 | 47.8 | O=C(O)CCc1ccc(OCc2cccc(Cl)c2)c(-c2cc(-c3ccc(F)cc3)n(CCc3ccccc3)n2)c1 |
| < 0.015 | 51.9 | O=C(O)CCc1ccc(OCc2cccc(Cl)c2)c(-c2cc(-c3ccc(F)cc3)n(Cc3ccccc3)n2)c1 |
| > 0.2 | 120 | COc1cccc(-c2cc(-c3cc(CC(=O)O)ccc3OCC(C)C)nn2Cc2ccccc2)c1OC |
| 0.138 | 288 | CCOc1ccccc1-c1cc(-c2cc(CC(=O)O)ccc2OC)nn1Cc1ccccc1 |
| > 0.2 | 232 | CCOc1ccccc1-c1cc(-c2cc(C(=O)O)ccc2OC)nn1CCc1ccccc1 |
| 0.022 | 10.7 | CCOc1ccc(C(=O)O)cc1-c1cc(-c2ccccc2OCC)n(CCc2ccccc2)n1 |
| 0.056 | 8.22 | COc1cccc(-c2cc(-c3cc(C(=O)O)ccc3OCC(C)C)nn2CCc2ccccc2)c1OC |
| 0.096 | 128 | O=C(O)c1ccc(-c2cc(-c3ccc(F)cc3)n(CCc3ccccc3)n2)cc1 |
| 0.169 | 449 | COc1ccc(CCC(=O)O)cc1-c1cc(-c2cccc(OC)c2OC)n(Cc2ccccc2)n1 |
| 0.096 | 68.8 | CCCOc1ccc(C(=O)O)cc1-c1cc(-c2ccccc2OCC)n(Cc2ccccc2)n1 |
| > 0.2 | 727 | COc1ccc(CC(=O)O)cc1-c1cc(-c2cccc(OC)c2OC)n(CCc2ccccc2)n1 |
| > 0.2 | 967 | COc1ccc(CC(=O)O)cc1-c1cc(-c2cccc(OC)c2OC)n(Cc2ccccc2)n1 |
| 0.046 | 38.9 | COc1ccc(CCC(=O)O)cc1-c1cc(-c2ccc(Cl)cc2)n(CCc2ccccc2)n1 |
| 0.096 | 54.1 | CCCCOc1ccc(CC(=O)O)cc1-c1cc(-c2ccccc2OCC)n(CCc2ccccc2)n1 |
| > 0.2 | 118 | CCCCOc1ccc(CC(=O)O)cc1-c1cc(-c2cccc(OC)c2OC)n(Cc2ccccc2)n1 |
| < 0.015 | 31.6 | COc1cccc(-c2cc(-c3cc(CCC(=O)O)ccc3OCc3cccc(Cl)c3)nn2Cc2ccccc2)c1OC |
| 0.102 | 105 | CCOc1ccc(CCC(=O)O)cc1-c1cc(-c2ccccc2OCC)n(CCc2ccccc2)n1 |
| 0.066 | 72 | CCCOc1ccc(CC(=O)O)cc1-c1cc(-c2ccccc2OCC)n(CCc2ccccc2)n1 |
| 0.066 | 17 | COc1ccc(CCC(=O)O)cc1-c1cc(-c2ccc(F)cc2)n(Cc2ccccc2)n1 |

| Kinetic_solubility [1] [Ug/ml] | IC50 [2] [µM] | Structure (SMILES) |
| --- | --- | --- |
| 0.015 | 14.2 | CCOc1ccccc1-c1cc(-c2cc(C(=O)O)ccc2OCC(C)C)nn1CCc1ccccc1 |
| < 0.015 | 54.4 | CCOc1ccccc1-c1cc(-c2cc(CC(=O)O)ccc2OCc2cccc(Cl)c2)nn1Cc1ccccc1 |
| > 0.2 | 14 | CCOc1ccc(C(=O)O)cc1-c1cc(-c2cccc(OC)c2OC)n(CCc2ccccc2)n1 |
| > 0.2 | 388 | CCOc1ccccc1-c1cc(-c2cc(CCC(=O)O)ccc2OC)nn1Cc1ccccc1 |
| > 0.2 | 339 | CCOc1ccccc1-c1cc(-c2cc(CC(=O)O)ccc2OC)nn1CCc1ccccc1 |
| > 0.2 | 353 | CCOc1ccc(CCC(=O)O)cc1-c1cc(-c2cccc(OC)c2OC)n(Cc2ccccc2)n1 |
| > 0.2 | 79.3 | CCCOc1ccc(C(=O)O)cc1-c1cc(-c2cccc(OC)c2OC)n(Cc2ccccc2)n1 |
| 0.039 | 238 | CCOc1ccccc1-c1cc(-c2cc(C(=O)O)ccc2OC)nn1Cc1ccccc1 |
| 0.117 | 60.6 | CCCOc1ccc(CC(=O)O)cc1-c1cc(-c2cccc(OC)c2OC)n(CCc2ccccc2)n1 |
| < 0.015 | 101 | CCOc1ccc(CCC(=O)O)cc1-c1cc(-c2ccc(F)cc2)n(Cc2ccccc2)n1 |
| > 0.2 | 91.2 | CCOc1ccccc1-c1cc(-c2ccc(C(=O)O)cc2)nn1CCc1ccccc1 |
| 0.138 | 295 | CCOc1ccc(C(=O)O)cc1-c1cc(-c2cccc(OC)c2OC)n(Cc2ccccc2)n1 |
| > 0.2 | 102 | CCOc1ccc(CC(=O)O)cc1-c1cc(-c2ccccc2OCC)n(CCc2ccccc2)n1 |
| > 0.2 | 348 | CCOc1ccc(CC(=O)O)cc1-c1cc(-c2cccc(OC)c2OC)n(Cc2ccccc2)n1 |
| < 0.015 | 249 | CCOc1ccccc1-c1cc(-c2cc(CC(=O)O)ccc2OCc2cccc(Cl)c2)nn1CCc1ccccc1 |
| 0.019 | 86.6 | COc1ccc(CCC(=O)O)cc1-c1cc(-c2ccc(Cl)cc2)n(Cc2ccccc2)n1 |
| > 0.2 | 329 | CCCOc1ccc(CC(=O)O)cc1-c1cc(-c2cccc(OC)c2OC)n(Cc2ccccc2)n1 |
| 0.056 | 68.3 | COc1cccc(-c2cc(-c3cc(CC(=O)O)ccc3OCC(C)C)nn2CCc2ccccc2)c1OC |
| 0.032 | 16.8 | CCCCOc1ccc(C(=O)O)cc1-c1cc(-c2ccccc2OCC)n(CCc2ccccc2)n1 |
| 0.066 | 111 | CCOc1ccc(C(=O)O)cc1-c1cc(-c2ccccc2OCC)n(Cc2ccccc2)n1 |
| > 0.2 | 436 | COc1ccc(CCC(=O)O)cc1-c1cc(-c2cccc(OC)c2OC)n(CCc2ccccc2)n1 |
| 0.117 | 116 | CCCCOc1ccc(CC(=O)O)cc1-c1cc(-c2cccc(OC)c2OC)n(CCc2ccccc2)n1 |
| > 0.2 | 186 | COc1ccc(C(=O)O)cc1-c1cc(-c2cccc(OC)c2OC)n(CCc2ccccc2)n1 |
| 0.117 | 346 | CCOc1ccccc1-c1cc(-c2ccc(C(=O)O)cc2)nn1Cc1ccccc1 |
| 0.046 | 48.7 | CCOc1ccccc1-c1cc(-c2cc(CC(=O)O)ccc2OCC(C)C)nn1CCc1ccccc1 |
| < 0.015 | 34 | COc1cccc(-c2cc(-c3cc(CCC(=O)O)ccc3OCc3cccc(Cl)c3)nn2CCc2ccccc2)c1OC |
